The term solubility denotes the concentration that dissolves in the medium under given conditions. Read a low solubility as a poorly soluble substance.

Experimental findings from ChEMBL document CHEMBL1138164, “Synthesis and structure-activity relationships of novel pyrrolocarbazole lactam analogs as potent and cell-permeable inhibitors of poly(ADP-ribose)polymerase-1 (PARP-1)” (Bioorg Med Chem Lett, 2006) are described below.

≈ marks a conversion by molar mass, not a printed value. Where only a bound is given, the exact number is not on record here.

Series [1] relates to PC-12. The series can be described thus: Potency in PC12 cells assessed by recovery of NAD+ at 1 uM. It is filed as functional, Rattus norvegicus.
Series [2] relates to PC-12. The series can be described thus: Efficacy in PC12 cells assessed by recovery of NAD+ at 30 uM. Type of series: functional, Rattus norvegicus.
Series [3] can be described thus: Aqueous solubility of compound. It is filed as physicochemical. Conditions: water (aqueous).
For series [4], the system named is PC-12. Briefly: Potency in PC12 cells assessed by recovery of NAD+ at 10 uM. Type of series: functional, Rattus norvegicus.

For the molecule `Cc1ccc2[nH]c3c4c(c5c(c3c2c1)CNC5=O)CCC4`, the Activity in the series on PC-12 [1] is 17%. This molecule displayed an Efficacy in the series with PC-12 [2] of 50%.

In series [3], `O=C1NCc2c1c1c(c3[nH]c4ccccc4c23)CCC1` returned a solubility of less than 1 µg/mL. Besides, the Activity with PC-12 [4] is reported as 68%; in the series on PC-12 [1] it was 48%.

The molecule `CN(Cc1ccccn1)C(=O)c1ccc2[nH]c3c4c(c5c(c3c2c1)CNC5=O)CCC4` yielded an Activity in the series with PC-12 [1] of 11%. The molecule further returned an Efficacy with PC-12 [2] of 44%.

The molecule `CN(Cc1ccncc1)C(=O)c1ccc2[nH]c3c4c(c5c(c3c2c1)CNC5=O)CCC4` returned an Activity with PC-12 [1] of 23%. Moreover, the Efficacy in the series with PC-12 [2] is given as 101%.

As for `CN(CCc1c[nH]cn1)C(=O)c1ccc2[nH]c3c4c(c5c(c3c2c1)CNC5=O)CCC4`, the Activity with PC-12 [1] was 5%. The Efficacy in the series with PC-12 [2] is given as 39%.

On to `O=C1NCc2c1c1c(c3[nH]c4ccc(C(=O)N5CCOCC5)cc4c23)CCC1`, for which, in the series with PC-12 [1], the Activity is given as 18%. This molecule showed an Efficacy with PC-12 [2] of 74%.

In the series with PC-12 [1], `CN(C)CCNC(=O)c1ccc2[nH]c3c4c(c5c(c3c2c1)CNC5=O)CCC4` came in with an Activity of 6%. This molecule displayed an Efficacy with PC-12 [2] of 36%.

`NCc1ccc2[nH]c3c4c(c5c(c3c2c1)CNC5=O)CCC4` displayed a solubility in series [3] of 100 µg/mL (≈ 343 µM). In addition, the Activity with PC-12 [1] was determined as 39%. In the series on PC-12 [2], the Efficacy is 102%.

On to `O=C(O)c1ccc2[nH]c3c4c(c5c(c3c2c1)CNC5=O)CCC4`, for which, in the series on PC-12 [1], the Activity came to 24%. The same molecule registered an Efficacy with PC-12 [2] of 65%.

`O=C(NCCN1CCOCC1)c1ccc2[nH]c3c4c(c5c(c3c2c1)CNC5=O)CCC4` had an Activity in the series on PC-12 [1] of 7%. The Efficacy with PC-12 [2] came out at 27%.

On to `NCCCCC(N)C(=O)NCc1ccc2[nH]c3c4c(c5c(c3c2c1)CNC5=O)CCC4` (stereo not given), for which the Activity with PC-12 [1] was 2%. In the series with PC-12 [2], the Efficacy was determined as 48%.

In the case of `O=C1NCc2c1c1c(c3[nH]c4ccc(Cl)cc4c23)CCC1`, the Activity with PC-12 [1] was 26%. In the series with PC-12 [2], this molecule showed an Efficacy of 133%.

In the series with PC-12 [1], `O=C(NCCn1ccnn1)c1ccc2[nH]c3c4c(c5c(c3c2c1)CNC5=O)CCC4` registered an Activity of 12%. In the series with PC-12 [2], the Efficacy is 28%.

In the series on PC-12 [1], `COC(=O)c1ccc2[nH]c3c4c(c5c(c3c2c1)CNC5=O)CCC4` displayed an Activity of 38%. Moreover, the Efficacy in the series on PC-12 [2] is given as 134%.

As to `N#Cc1ccc2[nH]c3c4c(c5c(c3c2c1)CNC5=O)CCC4`, the Activity in the series on PC-12 [4] amounted to 74%; with PC-12 [1] it was 26%. The Efficacy with PC-12 [2] worked out at 122%.

On to `O=C1NCc2c1c1c(c3[nH]c4ccc(Br)cc4c23)CCC1`, for which the Activity in the series with PC-12 [4] was 47%; with PC-12 [1], 28%.
